In PMC4645160, “Targeting kinases with anilinopyrimidines: discovery of N-phenyl-N’-[4-(pyrimidin-4-ylamino)phenyl]urea derivatives as selective inhibitors of class III receptor tyrosine kinase subfamily” (Scientific Reports, 2015):
Values joined by “and” are separate entries in the source; they are usually repeats but may differ in a detail not shown here. Identical values can stand only once.

Assays:
[1] = Body weight changes of LLC bearing mice; assay type: in vivo; settings: mouse, in vivo, ip, 1.5 mg/kg
Text: Besides, it was as cytotoxic as 19 towards cancer cells while showing a more favorable selectivity index. On these basis, compound 27 was chosen for in vivo experiments against a syngeneic murine solid tumor model, the murine Lewis Lung Carcinoma (LLC). The tumor growth inhibition induced by 27 was compared with that promoted by cisplatin (CDDP), the most common chemotherapeutic drug used in the treatment of lung cancers. Nine days after tumor inoculation, tumor-bearing mice were randomized into vehicle control and treatment groups (8 mice per group). […] As an indication of the adverse side effects, changes in the body weights of tumor-bearing mice were monitored at day 1 and daily from day 9.
Figure 7 In vivo testing of compound 27. […] At day 20, animals were sacrificed (i.e., before tumor can cause the animal discomfort), the legs were amputated at the proximal end of the femur, and the inhibition of tumor growth was determined according to the difference in weight of the tumor-bearing leg and the healthy leg of the animals expressed as % referred to the control animals. […] Both 27 and CDDP were administered at the highest not toxic doses (7.5 and 1.5 mg/kg, respectively), as determined by MTD studies. […] Weights were measured at day 1 and daily from day 9. […]

[2] = MTD studies (highest not toxic dose); assay type: in vivo; settings: daily ip
[3] = system: Lewis Lung Carcinoma (LLC); assay: In vivo anticancer activity toward Lewis Lung Carcinoma (LLC); settings: LLC in C57BL mice, 27 at 7.5 mg/kg, CDDP at 1.5 mg/kg
Text: Besides, it was as cytotoxic as 19 towards cancer cells while showing a more favorable selectivity index. On these basis, compound 27 was chosen for in vivo experiments against a syngeneic murine solid tumor model, the murine Lewis Lung Carcinoma (LLC). The tumor growth inhibition induced by 27 was compared with that promoted by cisplatin (CDDP), the most common chemotherapeutic drug used in the treatment of lung cancers. Nine days after tumor inoculation, tumor-bearing mice were randomized into vehicle control and treatment groups (8 mice per group). Control mice received the vehicle (0.2%v/v EtOH and 99.8%v/v of a saline solution), whereas treated groups received daily doses of 27 (7.5 mg · kg^−1 in the vehicle solution composed of 0.2%v/v EtOH and 99.8%v/v of saline solution) or CDDP (1.5 mg · kg^−1 in saline solution). Tumor growth was estimated at day 20 (Fig. 7a). As an indication of the adverse side effects, changes in the body weights of tumor-bearing mice were monitored at day 1 and daily from day 9.
Figure 7 In vivo testing of compound 27. Lewis lung carcinoma (LLC) was implanted i.m. (2 · 10^6 cells inoculum) into the right hind leg of 8-week old imbred C57BL mice. Nine days after tumor inoculation (palpable tumor), tumor-bearing mice were randomized into vehicle control and treatment groups (8 mice per group). Compound 27 was dosed daily at 7.5 mg/kg ip and CDDP was dosed daily at 1.5 mg/kg ip. At day 20, animals were sacrificed (i.e., before tumor can cause the animal discomfort), the legs were amputated at the proximal end of the femur, and the inhibition of tumor growth was determined according to the difference in weight of the tumor-bearing leg and the healthy leg of the animals expressed as % referred to the control animals. Control was constituted by vehicle (0.2%v/v EtOH and 99.8%v/v of saline solution). CDDP was used as positive reference. Both 27 and CDDP were administered at the highest not toxic doses (7.5 and 1.5 mg/kg, respectively), as determined by MTD studies. (a) Average tumor weight (g) after 20 days of treatment with control or compounds. (b) Percentage of reduction in tumor growth after 20 days of treatment with respect to control mice. (c) Body weight changes. The body weight changes of LLC bearing C57BL mice treated with vehicle or tested compounds. Each drug was administered daily after 9 days from the tumor cell inoculum. Weights were measured at day 1 and daily from day 9. Error bars indicate the standard deviation.
All studies involving animal testing were carried out in accordance with the ethical guidelines for animal research adopted by the University of Padua, acknowledging the Italian regulation (D.L.G.S. 116/92) and European Directive 86/609/EEC as to the animal welfare and protection and the related codes of practice. […]

[NH2][Pt]([NH2])([Cl])[Cl] [CDDP, cisplatin, reference compound]
Body weight loss (in words) [1]: elevated body weight loss
Highest not toxic dose as determined by MTD studies [2]: 1.5 mg/kg
Inhibition of tumor growth (%) ([3]; daily ip from day 9, day 20, versus vehicle control): 71.63% and 71.6%
Average tumor weight (mean±S.D., g) ([3]; daily ip from day 9, day 20): 0.139 ± 0.09 g
